We go through 5 compounds from paper PMC3940891, “Transient Overexpression of adh8a Increases Allyl Alcohol Toxicity in Zebrafish Embryos” (PLoS ONE, 2014).

In brackets after ≈: the same amount, converted by molar mass. Entries after “also recorded” stand apart in the source; their conditions may differ. Where two headings read alike, the source gives them in different places.

In series [1] the test system is gfp, adh8a, adh8b mRNA injected zebrafish embryos. Briefly: Zebrafish embryo test after microinjection of gfp, adh8a, adh8b or adh8a/b mRNA. The note with it: for increase in acute toxicity in response to injection of adh8 mRNA: gfp, adh8a, adh8b, adh8a/b mRNA injected embryos. The format is in vivo, zebrafish (Danio rerio). The method, then: (§1) The zebrafish embryo test was performed with few modifications according to a standard operation procedure and a static exposure setup without renewal of exposure solutions (ISO 15088, 2006). The following chemicals were used: Allyl alcohol (CAS 107-18-6, purity 99.8%, Sigma-Aldrich, Deisenhofen, Germany), acrolein (CAS 107-02-8, purity ≥99.0%, Sigma-Aldrich, Deisenhofen, Germany), 4-Nitrophenol (CAS 100-02-7, PESTANAL, analytical standard, Sigma-Aldrich, Deisenhofen, Germany), and ethanol (CAS 64-17-5, purity ≥ 99.5%, Carl Roth, Germany). Stock solutions were prepared for each experiment by adding the appropriate amount for the highest test concentration to the exposure media (294.0 mg/L CaCl2*2H2O, 123.3 mg/L MgSO4*7H2O, 64.7 mg/L NaHCO3, 5.7 mg/L KCl). The solutions were prepared one day before the experiment in 100 ml closed graduated flasks and were stirred over night for approximately 14 h. Lower concentrations were obtained by serial dilutions. Fertilized eggs (embryos at 4–32 cell stage) were transferred by a pipette to 24-well plates (1 embryo per well, 10 wells per exposure concentration, Cellstar Greiner Bio-One, Frickenhausen, Germany) or crystallization glass dishes (80 mm diameter, 10–20 embryos per vial and 30 ml of exposure medium), respectively. Exposures were performed in independent triplicates on different days for 48 h from 2-50 hpf (hours post fertilization), 24–72 hpf, and 72–120 hpf. For the 24–72 hpf exposure, part of the embryos were manually dechorionated using forceps. […] At either 2, 8, 24 or 72 hpf the medium was completely removed and replaced by exposure media containing different concentrations of allyl alcohol (2 ml per well or 30 ml per crystallization dish, respectively). The Henry's law coefficients of the test chemicals (allyl alcohol: 4.99*10^−6, ethanol: 5.62*10^−6, 4-nitrophenol: 4.15*10^−10, acrolein: 1.22*10^−4; atm*m^3/mol) indicate a weak volatility for ethanol, allyl alcohol and acrolein. Therefore, in order to reduce potential evaporation, 24-well plates were covered with an adhesive foil; crystallization dishes were covered with a household plastic wrap and watch glasses. For comparison of the LC50 at different stages and the effect of dechorionation, exposure was performed in 24-well plates. For gene expression analysis and microinjection experiments crystallization dishes were used for exposure.
(§2) After 48 h of exposure referring to 50, 72 or 120 hpf stages, the number of dead embryos was counted. Dead embryos were detected according to the criteria given in the ISO standard; i.e., either coagulation, missing heartbeat, failure to develop somites or a lack of detachment of the tail-bud from the yolk sac were considered as indicators of lethality.
(§3) Injection needles were pulled from borosilicate glass capillary tubes with filament (GC100F-10; Warner Instruments, LLC, Hamden, CT) using a Narishige micropipette puller (Tokyo, Japan). Embryos were injected with the Eppendorf FemtoJet (Hamburg, Germany) through the chorion into the yolk compartment at the one-cell stage.
(§4) Plasmids with either the cDNA sequence of adh8a or adh8b were purchased from ImaGenes (Berlin, Germany, clone numbers IRBOp991G0334D for adh8a and IRBOp991F02101D for adh8b). The GFP open reading frame was cloned into the pCS2p+ Vector. For synthesis of capped mRNAs, adh8 plasmids were cut with XhoI and pCS2P+GFP was cut with KpnI. 5′ capped mRNA was synthesized with the mMessage Machine SP6 Kit (Life Technologies/Ambion, Darmstadt, Germany) according to the manufacturer's instructions. Injected mRNA concentration was 20–50 ng/µl. Phenol red was added to the RNA samples before injection (0.1% final concentration) in order to allow tracking of successful injections.
(§5) The LC50 values ± asymmetric 95% confidence intervals were calculated using the software JMP (SAS, Cary, NC) using the Hill-slope equation for modeling of concentration-response curves: [drawing 1] […]

Test in series [2]: as above
As to conditions: OBI, zebrafish, in vivo, other: static waterborne exposure in exposure medium, exposure 8-56 h, with chorion, crystallization dish, strain OBI. The format is in vivo, zebrafish (Danio rerio). The procedure:
as §1, §2, §3, §4, §5

The conditions of series [3]: source not given; cited from earlier work.
A further series concerns fathead minnow. The note with it: cited from earlier work; for LC50: fathead minnow ref 27.
Another series deals with zebrafish embryo. As to conditions: cited from earlier work.
A short description of series [4]: Quantification of internal allyl alcohol concentration in mRNA-injected embryos by HS-GC-MS. It counts as in vivo, zebrafish (Danio rerio). The method, then:
50 injected embryos were exposed from 8 hpf to 26 hpf with 0.5 or 1 mg/L allyl alcohol. At 26 hpf embryos were manually dechorionated using forceps and transferred into fresh 20 ml glass vials. The exposure medium was removed and embryos were rinsed twice with 2 ml ISO water for 30 sec, transferred into GC-MS headspace vials (Agilent Technologies, Böblingen, Germany). After removal of remaining fluid by using a microliter pipette the vials were closed and embryos were frozen at −20°C for 10 min. Subsequently, embryos were homogenized by 5 min sonication in an ultrasonic bath (Sonorex RK 512 H; Bandelin Electronic, 35 kHz). Chemical analyses were performed immediately after sonication using an Agilent 7890A gas chromatograph with headspace sampler G1888 (Agilent Technologies, Böblingen, Germany). The headspace oven temperature for equilibration of samples was set to 48°C for 10 min. The compound separation was performed using a capillary column (60 m×0.25 i.d.) with a nonpolar stationary phase HP1 (thickness 1.00 µm). Ultra high purity helium was used as carrier gas. Mass spectra were derived with Agilent 5975C inert XL MSD and Triple Axis Detector (Agilent Technologies,) in electron impact ionization mode 70eV. The detector conditions were: ion source temperature 230°C and quadrupole temperature 150°C. The column oven temperature program involved an initial temperature of 45°C for 1 min, an increase at 15°C/min to 150°C (held for 2 min), then an increase at 65°C/min to 250°C (held 0.5 min). The mass spectrometer was operated in selected ion monitoring (SIM) mode for calibration and analyte quantification in samples.
For the allyl alcohol calibration the following concentrations were used: 8.5; 42.5; 85; 425; 850 and 1700 µg/L. 5 µl of the respected concentration were transferred into a headspace vial and directly used for HS-GC-MS analysis. The calibration curve was generated based on peak areas. Exposure concentrations were determined for each replicate at the start of the exposure.

A further series deals with zebrafish embryos. The experiment in a line: Zebrafish embryo test (acute lethality, 48 h static exposure), non-injected embryos. The format is in vivo, zebrafish (Danio rerio). The procedure:
as §1, §2
The LC50 values ± asymmetric 95% confidence intervals were calculated using the software JMP (SAS, Cary, NC) using the Hill-slope equation for modeling of concentration-response curves: [drawing 1]
Min and Max were set to 0 and 100%, respectively. x and y represented the nominal exposure concentration and the survival rate (percentage).

Details of series [5]: method as in PMID 22835061. As to conditions: cited from earlier work; for measured concentration as % of nominal concentration: 24-well plates ref 18.
For series [6], the system named is adh8a mRNA injected zebrafish embryos. The experiment in a line: Time-lapse recording of adh8a mRNA injected embryos exposed to allyl alcohol. The format is in vivo. As to conditions: 5 mg/L allyl alcohol, 24-wells. The procedure:
For time lapse recording of zebrafish embryos were performed using a Leica DMI4000 B inverted microscope (Leica, Wetzlar, Germany), equipped with a digital camera (DFC 350FX; Leica) and 5× objective (HCX PL FLUOTAR, 5.0×0.15 DRY). adh8a mRNA injected were exposed to 5mg/L allyl alcohol in 24-well plates (2 embryos per 2 ml). A constant temperature of 26°C was maintained with a heated stage insert. Embryos were imaged by bright filed every 20 min for 20 h. Images were analyzed using LAS AF software (Leica, Wetzlar, Germany). Video was exported using 3 frames per second.

The subject of a further series is adult zebrafish. On the set-up: method as in PMID 22835061. As to conditions: adult zebrafish ref 18; cited from earlier work.
Setting [7] is: adh8a mRNA injected, exposure 8-56 h, with chorion, crystallization dish, strain OBI.
The mark [8] stands for this setting: adh8b mRNA injected, exposure 8-56 h, with chorion, crystallization dish, strain OBI.
[9] abbreviates: gfp mRNA injected, exposure 8-56 h, with chorion, crystallization dish, strain OBI.

As usually defined, the LC50 is the concentration lethal to half of the exposed cells or organisms.

In the case of `O=[N+]([O-])c1ccc(O)cc1` [4-Nitrophenol], the “increase in acute toxicity in response to injection of adh8 mRNA” value in series [1] is reported as “did not detect any increase”. Also, the LC50 is 9.65 µg/mL (≈ 69.4 µM) in series [2] (adh8a mRNA injected); 10.2 µg/mL (≈ 73.4 µM) in [2] (adh8a/b mRNA (1:1) injected); 9.79 µg/mL (≈ 70.4 µM) in series [2] (adh8b mRNA injected); 9.45 µg/mL (≈ 67.9 µM) in series [2] (gfp mRNA injected); 44.8 µg/mL (≈ 322 µM) in the series with fathead minnow; 12.0 µg/mL (≈ 86.3 µM) in the series with zebrafish embryo (zebrafish embryo ref unpublished data). For the same compound, the “Henry's law coefficient” value in series [3] was 4.15*10^−10 atm*m^3/mol.
With `CC=O` [acetaldehyde], the “fold higher toxicity compared to the parent compound ethanol” value is “about 435 fold” in the series with fathead minnow (adult fish ref 27) and approximately 720 fold with zebrafish embryo (zebrafish embryo ref 25).
Regarding `C=CC=O` [acrolein], the “Henry's law coefficient” value in series [3] is recorded as 1.22*10^−4 atm*m^3/mol. The “acrolein detection in GC/MS chromatograms” value in series [4] (adh8a injected embryos exposed to allyl alcohol) was “could not detect acrolein”. This compound gave an LC50 in the series with zebrafish embryos (exposure 2-50 hpf, with chorion, no mRNA injected, 24-well plates, strain OBI, n = 1) of 0.42 µg/mL. Moreover, in the series with zebrafish embryos (zebrafish embryos, 2-50 hpf), the “fold lower LC50 of acrolein compared with allyl alcohol” value is recorded as approximately 1000 fold.
In the case of `C=CCO` [allyl alcohol, Allyl alcohol], the entries for the “measured concentration as % of nominal concentration” value in [5] (0 h) and in [5] (within 48 h of exposure) were “about 80%” and “about 28%”, respectively. The “geometric mean of measured concentrations as % of nominal concentration” value in series [5] (24-well plates, 48 h ref 18) is reported as 47%. Besides, the LC50 in series [1] (adh8a mRNA injected embryos, read-out: LC50) was found to be 0.0134 mM; in series [1] (setting [7]) it was 0.78 µg/mL; in [1] (adh8a/b mRNA (1:1) injected, exposure 8-56 h, with chorion, crystallization dish, strain OBI) it was 2.11 µg/mL; in [1] (setting [8]) it was 166 µg/mL; in series [1] (setting [9]), 436 µg/mL; with zebrafish embryos (exposure 2-50 hpf, non-injected, read-out: LC50), 8.2 mM. In addition, the LC50 with zebrafish embryos (exposure 2-50 hpf, with chorion, no mRNA injected, 24-well plates, strain WIK) was 478 µg/mL; in the series on zebrafish embryos (exposure 8-56 h, with chorion, non-injected control, crystallization dish, strain OBI), 328 µg/mL; with zebrafish embryos (exposure 24-72 hpf, with chorion (value paired with 451 mg/L), read-out: LC50) it was 7.7 mM; in the series on zebrafish embryos (exposure 24-72 hpf, with chorion, no mRNA injected, 24-well plates, strain WIK) it was 451 µg/mL; with zebrafish embryos (exposure 24-72 hpf, without chorion (manually removed), no mRNA injected, 24-well plates, strain WIK), 492 µg/mL; in the series with zebrafish embryos (exposure 24-72 hpf, without chorion (value paired with 492 mg/L), read-out: LC50), 8.5 mM. In addition, the median lethal concentration (LC50) with zebrafish embryos (exposure 72-120 hpf, hatched, no mRNA injected, 24-well plates, strain WIK) amounted to 157 µg/mL; in the series with zebrafish embryos (exposure 72-120 hpf, hatched, no mRNA injected, 24-well plates, strain WIK, listed as Allyl alcohol), 159 µg/mL; in the series on zebrafish embryos (exposure 72-120 hpf, read-out: LC50), 2.7 mM. Also, in series [1] (adh8b mRNA injections), the “fold reduction of LC50 by adh8b mRNA injection” value was found to be 2.5 fold. For the same compound, in [1] (compared to gfp-injected or non-injected embryos), the “fold reduction of LC50 by adh8a mRNA injection” value is given as “more than 500 fold”. The “Henry's law coefficient” value in [3] was 4.99*10^−6 atm*m^3/mol. The “allyl alcohol detection in embryos by GC-MS” value in series [4] (adh8a mRNA injected embryos) is reported as “no allyl alcohol was found; also recorded: below the limit of detection”. Besides, the “internal allyl alcohol concentration” value in series [4] (adh8a mRNA injected, 0.5 mg/L nominal, 8-26 hpf, Repl. 1-3, n.d. = not detectable) is listed as 0 pg/embryo. For the same compound, the “internal allyl alcohol level (below the limit of detection)” value in series [4] (adh8a-injected embryos) is reported as less than 4.6 µg/L. Also, the “internal allyl alcohol concentration (range)” value in [4] (before decline in adh8a-injected embryos) is on record as 0.23-58 ng/embryo. For the same compound, the “fold lower LC50 for exposure from 72-120 hpf compared with earlier stages” value with zebrafish embryos (72-120 hpf vs earlier exposure periods) is reported as 3 fold. In the series with zebrafish embryos (48 h exposures), the “sublethal malformations in exposed embryos” value was “No sublethal malformations were observed”. Besides, the “time to coagulation of the embryos” value was not above 24 h in the series with zebrafish embryos (toxic concentration) and 3 to 9 h in [6]. Moreover, the “fold higher toxic concentrations (lower toxicity) in embryos compared to adult fish” value with zebrafish embryos (zebrafish embryos vs adult fish) is on record as “about 1000 fold”. Further, the “toxicity level (LC50) in adult fish” value in the series with fathead minnow (fathead minnow ref 19) was 0.32 µg/mL. The “LC50 (adult fish)” value in the series on adult zebrafish is 0.28 µg/mL (≈ 4.82 µM).
For `CCO` [ethanol], the LC50 in series [1] (setting [7]) was 18570 µg/mL; in series [1] (adh8a/b mRNA injected, exposure 8-56 h, with chorion, crystallization dish, strain OBI), 17780 µg/mL; in [1] (setting [8]), 16310 µg/mL; in [1] (setting [9]), 19170 µg/mL; with fathead minnow (adult fish), 14700 µg/mL (≈ 319000 µM). In addition, the “increase in acute toxicity in response to injection of adh8 mRNA” value in [1] is recorded as “did not detect any increase”. Besides, the “Henry's law coefficient” value in [3] is listed as 5.62*10^−6 atm*m^3/mol.
